Source: US11161811B2, “Process for preparing Mannich base quaternary ammonium salt high-temperature resistant corrosion inhibitor and applications thereof” (SOUTHWEST PETROLEUM UNIVERSITY, priority 2018, dated 2021)

How the values were obtained:
[1] = 0.1 g corrosion inhibitor in 200 mL of 20% hydrochloric acid solution, stirred, dissolution observed
[2] = Compatibility with 20% hydrochloric acid system containing iron ion stabilizer, clay stabilizer and discharge aiding agent; type: physicochemical; settings: 0.1 g in 20% hydrochloric acid system with citric acid, potassium chloride and OP-10 or fluorocarbon surfactant; 90° C.
Protocol: The water solubility of the corrosion inhibitor prepared by Embodiments 1 to 4 and its compatibility with the system containing the iron ion stabilizer, clay stabilizer and discharge aiding agent under 90° C. are determined. The process is as follows: weigh 0.1 g of the corrosion inhibitor respectively, and dissolve in 200 mL of 20% hydrochloric acid solution, stir and observe its dissolution. Prepare 20% hydrochloric acid solution system adding with iron ion stabilizer citric acid, clay stabilizer potassium chloride and discharge aiding agent OP-10 or fluorocarbon surfactant, respectively, and then weigh 0.1 g of the corrosion inhibitor and add them to the 20% hydrochloric acid solution system, to observe the compatibility.

[3] = 4 h corrosion weight loss test (corrosion inhibition performance); settings: P110 carbon steel, 20% hydrochloric acid, 90° C., 1000 ppm corrosion inhibitor
Protocol: The corrosion inhibition performance of corrosion inhibitors in the embodiments 1 to 4 is determined by a 4 h corrosion weight loss test at 90° C. using 20% hydrochloric acid as a corrosive medium and P110 carbon steels. The amount of corrosion inhibitors is 1000 ppm.

SMILES | Water solubility [1] | Compatibility [2] | Inhibition rate [3] [%]
O=C(/C=C/c1ccccc1)CC(c1cccc(-c2cccs2)c1)[N+](Cc1ccccc1)(Cc1ccccc1)Cc1ccccc1 (stereo not drawn) [Embodiment 1] | Soluble reddish brown | Uniform and transparent, no | 98.63
CC(O)C[N+](Cc1ccc2ccccc2c1)(CC(C)O)C(CC(=O)CC(=C(c1ccccc1)c1ccccc1)c1ccccc1)c1cccc(-c2cccs2)c1 (stereo not drawn) [Embodiment 4] | Soluble reddish brown | Uniform and transparent, no | 98.41
O=C(/C=C/c1ccccc1)CC(/C=C/c1ccccc1)[N+]1(C(c2ccccc2)(c2ccccc2)c2ccccc2)C=Cc2ccccc21 (stereo not drawn) [Embodiment 3] | Soluble reddish brown | Uniform and transparent, no | 98.59
O=C(CC(=C(c1ccccc1)c1ccccc1)c1ccccc1)CC(/C=C/c1ccccc1)[N+]1(Cc2ccc3ccccc3c2)CCCCC1C(c1ccccc1)c1ccccc1 (stereo not drawn) [Embodiment 2] | Soluble reddish brown | Uniform and transparent, no | 97.96
